Experimental data published in patent US10047051B2, “Substituted pyridines and method of use” (AbbVie S.á{acute over (.)}r.l., priority 2015, dated 2018).
pEC50: −log10 of the molar value.

Experiments:
Assay type in all cases: cell-based
[1] = biological target: T1, CFTR ΔF508 mutant (Homo sapiens, UniProt P13569, DEL508-508); assay: YFP-halide influx assay for the CFTR-ΔF508 mutation (CFBE41o- cells); conditions: forskolin 10.67 μM; for pEC50: from (1−F/F0) vs concentration plot
T1 construct: expressed in transfected cells; host or cells: CFBE41o- cells, adenoviral transduction
T1 sequence (P13569 with tags, fused parts or gaps DEL508-508): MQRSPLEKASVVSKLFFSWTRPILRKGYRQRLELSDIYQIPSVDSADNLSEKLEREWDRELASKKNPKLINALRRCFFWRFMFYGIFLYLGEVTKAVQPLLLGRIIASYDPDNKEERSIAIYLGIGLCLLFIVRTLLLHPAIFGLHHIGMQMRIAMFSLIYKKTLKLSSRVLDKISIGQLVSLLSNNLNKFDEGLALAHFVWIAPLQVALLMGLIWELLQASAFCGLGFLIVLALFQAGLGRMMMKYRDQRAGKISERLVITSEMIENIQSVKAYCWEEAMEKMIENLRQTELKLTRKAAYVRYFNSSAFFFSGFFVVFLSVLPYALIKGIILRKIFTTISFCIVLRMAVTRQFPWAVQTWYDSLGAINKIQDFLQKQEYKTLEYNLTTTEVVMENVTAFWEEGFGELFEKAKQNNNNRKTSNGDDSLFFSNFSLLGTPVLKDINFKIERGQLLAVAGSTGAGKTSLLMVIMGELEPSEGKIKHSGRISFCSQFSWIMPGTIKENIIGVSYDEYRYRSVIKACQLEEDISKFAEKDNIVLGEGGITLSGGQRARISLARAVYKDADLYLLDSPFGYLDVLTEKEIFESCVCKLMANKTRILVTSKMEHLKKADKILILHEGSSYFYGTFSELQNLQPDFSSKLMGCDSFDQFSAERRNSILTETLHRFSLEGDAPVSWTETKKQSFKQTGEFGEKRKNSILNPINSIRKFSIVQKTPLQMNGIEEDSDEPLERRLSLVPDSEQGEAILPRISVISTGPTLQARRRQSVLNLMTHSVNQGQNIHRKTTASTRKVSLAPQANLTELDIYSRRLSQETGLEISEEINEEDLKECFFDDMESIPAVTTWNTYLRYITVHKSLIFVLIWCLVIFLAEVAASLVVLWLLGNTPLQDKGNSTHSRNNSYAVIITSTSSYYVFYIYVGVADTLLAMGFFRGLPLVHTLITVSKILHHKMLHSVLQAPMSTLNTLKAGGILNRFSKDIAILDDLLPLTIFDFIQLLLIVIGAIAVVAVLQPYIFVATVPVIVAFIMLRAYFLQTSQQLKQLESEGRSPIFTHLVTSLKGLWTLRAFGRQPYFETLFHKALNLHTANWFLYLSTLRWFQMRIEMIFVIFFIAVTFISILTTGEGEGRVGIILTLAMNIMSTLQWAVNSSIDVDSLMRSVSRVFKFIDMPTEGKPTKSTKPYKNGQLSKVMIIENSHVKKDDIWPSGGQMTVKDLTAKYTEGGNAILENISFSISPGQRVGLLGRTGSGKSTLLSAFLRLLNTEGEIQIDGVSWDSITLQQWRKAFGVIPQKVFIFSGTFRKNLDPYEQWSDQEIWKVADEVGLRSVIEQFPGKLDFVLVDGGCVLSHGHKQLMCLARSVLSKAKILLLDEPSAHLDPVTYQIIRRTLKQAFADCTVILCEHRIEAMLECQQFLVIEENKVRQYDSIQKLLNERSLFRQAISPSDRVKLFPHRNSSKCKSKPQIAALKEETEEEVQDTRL
In short: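 CFBE41o- cells transduced with adenovirus expressing CFTR ΔF508 and halide-sensitive YFP H148Q/I152L/F47L, then held 24 h at 27° C or with a CFTR modulator 24 h at 37° C. Iodide-induced quench recorded 2 min; EC50 from (1−F/F0) at 36 s versus concentration.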

[2] = biological target: T2, CFTR-G1349D (Homo sapiens, UniProt P13569, G1349D); assay: YFP-halide influx assay for the CFTR-G1349D
T2 construct: expressed in transfected cells
T2 sequence (P13569 whole entry G1349D): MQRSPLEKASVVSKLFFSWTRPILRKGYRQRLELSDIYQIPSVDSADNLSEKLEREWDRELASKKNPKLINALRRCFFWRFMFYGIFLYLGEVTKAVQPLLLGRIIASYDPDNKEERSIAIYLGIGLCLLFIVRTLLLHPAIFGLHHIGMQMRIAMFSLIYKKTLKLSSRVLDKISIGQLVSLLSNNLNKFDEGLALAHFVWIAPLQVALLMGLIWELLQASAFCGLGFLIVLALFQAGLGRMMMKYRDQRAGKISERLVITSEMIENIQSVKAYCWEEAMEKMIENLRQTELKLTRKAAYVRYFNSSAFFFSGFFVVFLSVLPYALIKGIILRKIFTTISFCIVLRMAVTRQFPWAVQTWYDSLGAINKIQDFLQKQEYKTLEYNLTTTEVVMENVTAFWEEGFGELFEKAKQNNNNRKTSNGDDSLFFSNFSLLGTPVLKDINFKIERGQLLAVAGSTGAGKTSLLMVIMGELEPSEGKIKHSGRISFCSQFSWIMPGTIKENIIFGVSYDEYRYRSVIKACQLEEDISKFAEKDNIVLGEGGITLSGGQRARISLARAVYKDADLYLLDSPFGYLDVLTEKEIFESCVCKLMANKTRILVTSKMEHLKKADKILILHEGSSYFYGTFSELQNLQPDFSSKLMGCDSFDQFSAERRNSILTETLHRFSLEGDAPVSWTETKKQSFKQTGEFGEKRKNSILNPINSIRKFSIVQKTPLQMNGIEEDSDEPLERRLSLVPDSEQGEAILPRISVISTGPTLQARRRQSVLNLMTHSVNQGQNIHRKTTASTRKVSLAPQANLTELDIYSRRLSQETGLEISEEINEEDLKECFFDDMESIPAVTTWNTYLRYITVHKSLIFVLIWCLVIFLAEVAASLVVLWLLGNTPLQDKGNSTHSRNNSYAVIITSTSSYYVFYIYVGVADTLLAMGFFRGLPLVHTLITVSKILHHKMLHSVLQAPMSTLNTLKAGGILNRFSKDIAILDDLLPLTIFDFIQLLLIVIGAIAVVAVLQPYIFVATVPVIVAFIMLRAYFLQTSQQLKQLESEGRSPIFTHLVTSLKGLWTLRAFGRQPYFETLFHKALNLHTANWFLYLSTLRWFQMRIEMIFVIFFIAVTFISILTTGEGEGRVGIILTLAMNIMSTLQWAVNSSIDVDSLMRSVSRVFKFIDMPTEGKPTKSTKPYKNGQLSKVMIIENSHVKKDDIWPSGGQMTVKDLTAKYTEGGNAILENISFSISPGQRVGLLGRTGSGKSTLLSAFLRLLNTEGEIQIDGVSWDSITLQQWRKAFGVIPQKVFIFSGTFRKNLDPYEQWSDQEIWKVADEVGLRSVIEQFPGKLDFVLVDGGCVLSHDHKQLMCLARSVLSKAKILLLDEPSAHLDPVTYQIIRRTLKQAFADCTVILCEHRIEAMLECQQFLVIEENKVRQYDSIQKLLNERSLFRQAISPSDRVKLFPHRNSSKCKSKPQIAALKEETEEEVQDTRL
In short: (§1)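 HEK293 cells reverse-transfected with a CFTR mutant and YFP H148Q/I152L/F47L halide sensor, expressed 24 h at 37° C. Fluorescence quenching followed for 7 s after I⁻ injection; activity expressed as 1−F/F0, with EC50 fitted from 1−F/F0 versus compound concentration.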

[3] = biological target: T3, CFTR G551D mutant (Homo sapiens, UniProt P13569, G551D); assay: YFP-halide influx assay for the CFTR-G551D mutation (HEK293 cells); conditions: forskolin 10.67 μM
T3 construct: expressed in transfected cells; host or cells: HEK293 cells, reverse transfection with plasmids
T3 sequence (P13569 whole entry G551D): as the sequence (P13569 whole entry G1349D) above, with G551D, D1349G counted along it
In short: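 HEK293 cells reverse-transfected with CFTR G551D and halide-sensitive YFP (H148Q/I152L/F47L), expressed 24 h at 37 °C. YFP fluorescence quenching recorded for 7 s after I⁻ injection. Response = 1−F/F0; EC50 derived from 1−F/F0 vs compound concentration.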

[4] = biological target: T4, CFTR-S549N (Homo sapiens, UniProt P13569, S549N); assay: YFP-halide influx assay for the CFTR-S549N; parameters: % Activation: concentration or dose not given beside the values
T4 construct: expressed in transfected cells
T4 sequence (P13569 whole entry S549N): as the sequence (P13569 whole entry G1349D) above, with S549N, D1349G counted along it
In short: as §1

[5] = biological target: T5, CFTR-G178R (Homo sapiens, UniProt P13569, G178R); assay: YFP-halide influx assay for the CFTR-G178R
T5 construct: expressed in transfected cells
T5 sequence (P13569 whole entry G178R): as the sequence (P13569 whole entry G1349D) above, with G178R, D1349G counted along it
In short: as §1

| SMILES | % Activation [1] [%] | pEC50 [1] | % Activation [2] [%] | pEC50 [2] | % Activation [3] [%] | pEC50 [3] | % Activation [4] [%] | pEC50 [4] | % Activation [5] [%] | pEC50 [5] |
| --- | --- | --- | --- | --- | --- | --- | --- | --- | --- | --- |
| CC(C)(O)CNC(=O)c1ncc(S(=O)(=O)c2ccc(OC(F)(F)F)cc2)cc1N [Compound 1, 3-amino-N-(2-hydroxy-2-methylpropyl)-5-{[4-(trifluoromethoxy)phenyl]sulfonyl}pyridine-2-carboxamide] | 97.9 | 7.50 | 69.6 | 6.58 | 47.1 | 6.16 | 72.7 | 6.24 | 82.7 | 6.52 |
| CC(O)(CNC(=O)c1ncc(S(=O)(=O)c2ccc(OC(F)(F)F)cc2)cc1N)C(F)(F)F (stereo not drawn) [Compound 2, 3-amino-N-(3,3,3-trifluoro-2-hydroxy-2-methylpropyl)-5-{[4-(trifluoromethoxy)phenyl]sulfonyl}pyridine-2-carboxamide] | 104.5 | 8.37 | 69.4 | 6.25 | 62.5 | 6.13 | 70.3 | 6.48 | 71.8 | 6.31 |
| Nc1cc(S(=O)(=O)c2ccc(OC(F)(F)F)cc2)cnc1C(=O)NCCO [Compound 14, 3-amino-N-(2-hydroxyethyl)-5-{[4-(trifluoromethoxy)phenyl]sulfonyl}pyridine-2-carboxamide] | 108.1 | 7.63 | 66.7 | 6.09 | 71.6 | 5.88 | 68.9 | 5.96 | 70.7 | 6.13 |
| Nc1cc(S(=O)(=O)c2ccc(OC(F)(F)F)cc2)cnc1C(=O)NC[C@H](O)C(F)(F)F [Compound 26, 3-amino-N-[(2S)-3,3,3-trifluoro-2-hydroxypropyl]-5-{[4-(trifluoromethoxy)phenyl]sulfonyl}pyridine-2-carboxamide] | 105.3 | 8.66 |  |  | 80.8 | 6.50 |  |  |  |  |
| Nc1cc(S(=O)(=O)c2ccc(OC(F)(F)F)cc2)cnc1C(=O)NC[C@@H](O)C(F)(F)F [Compound 37, 3-amino-N-[(2R)-3,3,3-trifluoro-2-hydroxypropyl]-5-{[4-(trifluoromethoxy)phenyl]sulfonyl}pyridine-2-carboxamide] | 106.4 | 8.64 |  |  | 83.7 | 6.57 |  |  |  |  |
| Nc1cc(S(=O)(=O)c2ccc(OC(F)(F)F)cc2)cnc1C(=O)N1CC(F)(F)C1 [Compound 40, (3-amino-5-{[4-(trifluoromethoxy)phenyl]sulfonyl}pyridin-2-yl)(3,3-difluoroazetidin-1-yl)methanone] | 105.5 | 7.64 | 84.31 | 6.36 | 70.2 | 6.18 | 84.51 | 5.92 | 81.76 | 6.41 |
| Nc1cc(S(=O)(=O)c2ccccc2OC(F)(F)F)cnc1C(=O)NC[C@@H](O)C(F)(F)F [Compound 81, 3-amino-N-[(2R)-3,3,3-trifluoro-2-hydroxypropyl]-5-{[2-(trifluoromethoxy)phenyl]sulfonyl}pyridine-2-carboxamide] | 104.0 | 9.30 | 96.01 | 8.02 | 108.0 | 6.62 | 107 | 7.96 | 104.8 | 7.90 |

Continued by rising pEC50 [1], values first:

| % Activation [1] [%] | pEC50 [1] | % Activation [2] [%] | pEC50 [2] | % Activation [3] [%] | pEC50 [3] | % Activation [4] [%] | pEC50 [4] | % Activation [5] [%] | pEC50 [5] | SMILES |
| --- | --- | --- | --- | --- | --- | --- | --- | --- | --- | --- |
| 106.2 | 7.73 | 86.8 | 6.29 | 71.7 | 6.37 | 91.4 | 6.25 | 84.3 | 6.46 | Nc1cc(S(=O)(=O)c2ccc(OC(F)(F)F)cc2)cnc1C(=O)NCC(O)COCC1CC1 (stereo not drawn) [Compound 31, 3-amino-N-[3-(cyclopropylmethoxy)-2-hydroxypropyl]-5-{[4-(trifluoromethoxy)phenyl]sulfonyl}pyridine-2-carboxamide] |
| 111.6 | 7.77 | 89.6 | 6.42 | 75.3 | 6.06 | 104.7 | 6.28 | 96.0 | 6.37 | COC[C@H](O)CNC(=O)c1ncc(S(=O)(=O)c2ccc(C(F)(F)F)cc2)cc1N [Compound 70, 3-amino-N-[(2R)-2-hydroxy-3-methoxypropyl]-5-{[4-(trifluoromethyl)phenyl]sulfonyl}pyridine-2-carboxamide] |
| 109.0 | 7.83 | 88.9 | 6.30 | 85.1 | 5.92 | 86.4 | 6.13 | 86.1 | 6.55 | C[C@H](O)CNC(=O)c1ncc(S(=O)(=O)c2ccc(OC(F)(F)F)cc2)cc1N [Compound 21, 3-amino-N-[(2S)-2-hydroxypropyl]-5-{[4-(trifluoromethoxy)phenyl]sulfonyl}pyridine-2-carboxamide] |
| 96.1 | 7.84 | 88.0 | 6.27 | 65.8 | 5.71 | 91.7 | 6.15 | 78.0 | 6.28 | Nc1cc(S(=O)(=O)c2ccc(OC(F)(F)F)cc2)cnc1C(=O)N1CC(O)C1 [Compound 32, (3-amino-5-{[4-(trifluoromethoxy)phenyl]sulfonyl}pyridin-2-yl)(3-hydroxyazetidin-1-yl)methanone] |
| 96.6 | 7.89 | 75.5 | 6.27 | 59.1 | 5.94 | 103.0 | 6.19 | 78.7 | 6.26 | C[C@H](O)CNC(=O)c1ncc(S(=O)(=O)c2ccc(C(F)(F)F)cc2)cc1N [Compound 100, 3-amino-N-[(2S)-2-hydroxypropyl]-5-{[4-(trifluoromethyl)phenyl]sulfonyl}pyridine-2-carboxamide] |
| 111.0 | 8.07 | 82.7 | 6.51 | 58.4 | 6.18 | 92.9 | 6.53 | 79.3 | 6.64 | Nc1cc(S(=O)(=O)c2ccc(F)cc2)cnc1C(=O)NC[C@@H](O)C(F)(F)F [Compound 36, 3-amino-5-[(4-fluorophenyl)sulfonyl]-N-[(2R)-3,3,3-trifluoro-2-hydroxypropyl]pyridine-2-carboxamide] |
| 108.3 | 8.09 | 82.6 | 6.39 | 67.2 | 6.01 | 82.5 | 6.53 | 76.8 | 6.68 | Nc1cc(S(=O)(=O)c2ccc(F)cc2)cnc1C(=O)NC[C@H](O)C(F)(F)F [Compound 25, 3-amino-5-[(4-fluorophenyl)sulfonyl]-N-[(2S)-3,3,3-trifluoro-2-hydroxypropyl]pyridine-2-carboxamide] |
| 114.0 | 8.47 | 87.4 | 6.80 | 82.5 | 6.46 | 87.1 | 6.41 | 93.1 | 7.09 | Nc1cc(S(=O)(=O)c2ccc(OC(F)(F)F)cc2)cnc1C(=O)NCC(O)C(F)(F)F (stereo not drawn) [Compound 6, 3-amino-N-(3,3,3-trifluoro-2-hydroxypropyl)-5-{[4-(trifluoromethoxy)phenyl]sulfonyl}pyridine-2-carboxamide] |
